Values of other authors in patent publication US12364661B2, “Deformable nano-scale vehicles (DNVS) for trans-blood brain barrier, trans-mucosal, and transdermal drug delivery” (The Regents of the University of California, priority 2015, dated 2025).

Conditions: measured experimentally

## CCCN[C@H]1CCc2nc(N)sc2C1 [Pramipexole, pramipexole]
  log P: 0.4
